In ChEMBL document CHEMBL1124044, “4-N-hydroxy-L-2,4-diaminobutyric acid. A strong inhibitor of glutamine synthetase” (J Med Chem, 1988) one finds inhibition data, which are given here for two molecules.

In test [1] the test system is Glutamine synthetase (Ovis aries). Briefly: Percent inhibition was measured on Sheep Brain Glutamine synthetase at 0.5 mM concentration.
Test [2] shares this test system. Briefly: Percent inhibition was measured on Sheep Brain Glutamine synthetase at 0.1 mM concentration.
Test [3] shares this test system. Briefly: Percent inhibition was measured on Sheep Brain Glutamine synthetase at 0.2 mM concentration.
In test [4] the test system is Glutamine synthetase (Glycine max). Briefly: Percent inhibition was measured on Soybean Glutamine synthetase at 0.2 mM concentration.
Test [5] shares this test system. The settings on record: at 0.1 mM.
For test [6] the test system is unchanged. The experiment in a line: Percent inhibition was measured on Soybean Glutamine synthetase at 0.5 mM concentration.
Test [7] relates to Glutamine synthetase (Ovis aries). Briefly: Percent inhibition was measured on Sheep Brain […] at 0.1 mM concentration.
The test system is the same in test [8]. As to conditions: at 0.2 mM.
Test [9] shares this test system. The settings on record: at 0.5 mM.
Test [10] relates to Glutamine synthetase (Glycine max). As to conditions: at 0.2 mM.
Test [11] has the same test system. The settings on record: at 0.5 mM.

In general, inhibition refers to the share of the control response that was lost under treatment.

With `NCC(O)CCC(N)C(=O)O` (configuration not stated), the inhibition in test [1] amounted to 22%; in test [2] it was 5%; in test [3] it was 11%; in [4], 9%; in [5], 5%; in test [6], 21%.
Consider `CNO`, for which the inhibition in test [7] stood at 0%; in test [8], 4%; in test [9], 8%; in test [10], 0%; in test [5] it was 0%; in test [11] it was 0%.
